The target of this experiment is WDR5 (Homo sapiens (Human), UniProt P61964). The experiment in a line: TR-FRET binding assay (displacement of 10mer-Thr-FAM probe from WDR5). For orientation: In TR-FRET formats the signal depends on donor and acceptor labels being close together.
The mark [1] stands for this setting: read-out: Ki for Inhibition of WDR5 by TR-FRET assay, TR-FRET, 10mer-Thr-FAM probe, WDR5-His tag 2 nM, pH 7.0.
[2] abbreviates: read-out: Ki for Inhibition of WDR5 by TR-FRET assay.

Results on 19 molecules are retold here after patent US10844044B2 (Vanderbilt University, priority 2018, dated 2020).

One may read the pKi as the negative decadic logarithm of the Ki, by convention in mol/L.

pKi: −log10 of the molar value. Like-named read-outs stand apart in the source and are kept apart here.

Regarding `COc1cc(OC)cc(C(NC(=O)c2cc(Cn3ccn(C)c3=N)cc(-c3ncnc4c3CCCC4)c2)C2CC2)c1` (stereo not shown) [Example 96, N-(Cyclopropyl(3,5-dimethoxyphenyl)methyl)-3-((2-imino-3-methyl-2,3-dihydro-1H-imidazol-1-yl)methyl)-5-(5,6,7,8-tetrahydroquinazolin-4-yl)benzamide], the pKi under setting [1] is 7.57.

`Cc1cc(CNC(=O)c2cc(Cn3ccn(C)c3=N)cc(-c3ccc(F)cc3C(F)(F)F)n2)ccc1Cl` [Example 99, N-(4-Chloro-3-methylbenzyl)-6-(4-fluoro-2-(trifluoromethyl)phenyl)-4-((2-imino-3-methyl-2,3-dihydro-1H-imidazol-1-yl)methyl)picolinamide]: the pKi under setting [1] was 8.96.

Consider `COc1cc(CNC(=O)c2cc(Cn3ccn(C)c3=N)cc(-c3ccc(F)cc3C(F)(F)F)n2)cc(OC)c1` [Example 100, N-(3,5-Dimethoxybenzyl)-6-(4-fluoro-2-(trifluoromethyl)phenyl)-4-((2-imino-3-methyl-2,3-dihydro-1-imidazol-1-yl)methyl)picolinamide], for which the pKi under setting [1] is 9.15.

Turning to `Cc1ccnc(C(NC(=O)c2cc(Cn3ccn(C)c3=N)cc(-c3ccc(F)cc3C(F)(F)F)n2)C2CC2)c1` (stereo not shown) [Example 101, N-(Cyclopropyl(4-methylpyridin-2-yl)methyl)-6-(4-fluoro-2-(trifluoromethyl)phenyl)-4-((2-imino-3-methyl-2,3-dihydro-1H-imidazol-1-yl)methyl)picolinamide], the pKi under setting [1] was 9.35.

With `COC(=O)CC(NC(=O)c1cc(Cn2ccn(C)c2=N)cc(-c2ccc(F)cc2C(F)(F)F)c1F)c1ccc(Cl)c(Cl)c1` (stereo not shown) [Example 110, Methyl 3-(3,4-dichlorophenyl)-3-(2,4′-difluoro-5-((2-imino-3-methyl-2,3-dihydro-1H-imidazol-1-yl)methyl)-2′-(trifluoromethyl)-[1,1′-biphenyl]-3-carboxamido)propanoate], the pKi under setting [1] was 10.00.

Turning to `Cc1[nH]c(=O)ccc1-c1cc(Cn2ccn(C)c2=N)cc(C(=O)NCc2ccc(Cl)c(Cl)c2)c1` [Example 112, N-(3,4-Cichlorobenzyl)-3-((2-imino-3-methyl-2,3-dihydro-1-imidazol-1-yl)methyl)-5-(2-methyl-6-oxo-1,6-dihydropyridin-3-yl)benzamide], the pKi under setting [1] is 7.54.

As for `Cc1cc([C@@H](NC(=O)c2cc(Cn3ccn(C)c3=N)cc(-c3cnc(F)cc3C)c2)C2CC2)ccc1F` [Example 113, (S)—N-(Cyclopropyl(4-fluoro-3-methylphenyl)methyl)-3-(6-fluoro-4-methylpyridin-3-yl)-5-((2-imino-3-methyl-2,3-dihydro-1H-imidazol-1-yl)methyl)benzamide], the pKi under setting [1] is < 7.48.

Consider `Cc1cc([C@@H](NC(=O)c2cc(Cn3ccn(C)c3=N)cc(-c3cncnc3C(F)(F)F)c2)C2CC2)ccc1F` [Example 123, (S)—N-(Cyclopropyl(4-fluoro-3-methylphenyl)methyl)-3-((2-imino-3-methyl-2,3-dihydro-1H-imidazol-1-yl)methyl)-5-(4-(trifluoromethyl)pyrimidin-5-yl)benzamide], for which the negative-log Ki (pKi) under setting [2] is 9.74.

As for `C[C@H](NC(=O)c1cc(Cn2ccn(C)c2=N)cc(-c2cccnc2C(F)(F)F)c1)c1ccc(F)c(Cl)c1` [Example 124, (S)—N-(1-(3-chloro-4-fluorophenyl)ethyl)-3-((2-imino-3-methyl-2,3-dihydro-1H-imidazol-1-yl)methyl)-5-(2-(trifluoromethyl)pyridin-3-yl)benzamide], the pKi under setting [2] was 9.00.

Consider `C[C@H](NC(=O)c1cc(Cn2ccn(C)c2=N)cc(-c2cccnc2C(F)(F)F)c1)c1ccc(C(F)(F)F)cc1` [Example 126, (S)-3-((2-Imino-3-methyl-2,3-dihydro-1H-imidazol-1-yl)methyl)-N-(1-(4-(trifluoromethyl)phenyl)ethyl)-5-(2-(trifluoromethyl)pyridin-3-yl)benzamide], for which the pKi under setting [1] is 8.60.

For the molecule `Cn1ccn(Cc2cc(C(=O)N[C@H](c3ccc(F)cn3)C3CC3)cc(-c3cccnc3C(F)(F)F)c2)c1=N` [Example 128, (S)—N-(Cyclopropyl(5-fluoropyridin-2-yl)methyl)-3-((2-imino-3-methyl-2,3-dihydro-1H-imidazol-1-yl)methyl)-5-(2-(trifluoromethyl)pyridin-3-yl)benzamide], under setting [1], the negative logarithm of the Ki (pKi) was 7.64.

As to `Cn1ccn(Cc2cc(C(=O)N[C@H]3CCc4cc(F)ccc43)cc(-c3cccnc3C(F)(F)F)c2)c1=N` [Example 129, (S)—N-(5-Fluoro-2,3-dihydro-1H-inden-1-yl)-3-((2-imino-3-methyl-2,3-dihydro-1H-imidazol-1-yl)methyl)-5-(2-(trifluoromethyl)pyridin-3-yl)benzamide], the pKi is < 7.48.

As for `C[C@H](NC(=O)c1cc(Cn2ccn(C)c2=N)cc(-c2cccnc2C(F)(F)F)c1)c1ncc(F)cn1` [Example 130, (S)—N-(1-(5-Fluoropyrimidin-2-yl)ethyl)-3-((2-imino-3-methyl-2,3-dihydro-1H-imidazol-1-yl)methyl)-5-(2-(trifluoromethyl)pyridin-3-yl)benzamide], the negative-log Ki (pKi) under setting [1] is < 7.48.

For `COc1cc(CNC(=O)c2cc(Cn3ccn(-c4ccccc4)c3=N)cc(-c3ccc(F)cc3C)c2)cc(OC)c1` [Example 133, N-(3,5-Dimethoxybenzyl)-4′-fluoro-5-((2-imino-3-phenyl-2,3-dihydro-1H-imidazol-1-yl)methyl)-2′-methyl-[1,1′-biphenyl]-3-carboxamide], the negative logarithm of the Ki (pKi) was < 7.48.

Turning to `COc1cc(CNC(=O)c2cc(Cn3ccn(CC4CC4)c3=N)cc(-c3ccc(F)cc3C)c2)cc(OC)c1` [Example 134, 5-((3-(Cyclopropylmethyl)-2-imino-2,3-dihydro-1H-imidazol-1-yl)methyl)-N-(3,5-dimethoxybenzyl)-4′-fluoro-2′-methyl-[1,1′-biphenyl]-3-carboxamide], under setting [1], the negative-log Ki (pKi) is 7.42.

As for `Cc1cc([C@@H](NC(=O)c2cc(Cn3ccn(C)c3=N)cc(-c3ccnc4c3CCC4)c2)C2CC2)ccc1F` [Example 136, (S)—N-(Cyclopropyl(4-fluoro-3-methylphenyl)methyl)-3-(6,7-dihydro-5H-cyclopenta[b]pyridin-4-yl)-5-((2-imino-3-methyl-2,3-dihydro-1H-imidazol-1-yl)methyl)benzamide], the negative-log Ki (pKi) under setting [1] was > 10.00.

Consider `Cc1cc([C@@H](NC(=O)c2cc(Cn3ccn(-c4ccccc4)c3=N)cc(-c3cccnc3C(F)(F)F)c2)C2CC2)ccc1F` [Example 137, (S)—N-(Cyclopropyl(4-fluoro-3-methylphenyl)methyl)-3-((2-imino-3-phenyl-2,3-dihydro-1H-imidazol-1-yl)methyl)-5-(2-(trifluoromethyl)pyridin-3-yl)benzamide], for which the negative-log Ki (pKi) under setting [2] is < 7.48.

As to `Cc1ccnc(C(NC(=O)c2cc(Cn3ccn(C)c3=N)cc(OC(F)(F)F)c2)C2CC2)c1` (stereo not shown) [Example 145, N-(Cyclopropyl(4-methylpyridin-2-yl)methyl)-3-((2-imino-3-methyl-2,3-dihydro-1H-imidazol-1-yl)methyl)-5-(trifluoromethoxy)benzamide], the pKi under setting [1] is 9.02.

For `Cn1ccn(Cc2cc(OC(F)(F)F)cc(C(=O)N[C@@H](CC(=O)O)c3cccc(C(F)(F)F)c3)c2)c1=N` [Example 146, (S)-3-(3-((2-Imino-3-methyl-2,3-dihydro-1H-imidazol-1-yl)methyl)-5-(trifluoromethoxy)benzamido)-3-(3-(trifluoromethyl)phenyl)propanoic acid], the pKi under setting [1] was 8.00.
